Test results from ChEMBL document CHEMBL3124777, “Synthesis and biological evaluation of thiazoline derivatives as new antimicrobial and anticancer agents” (Eur J Med Chem, 2014).
≈ marks a conversion by molar mass, not a printed value. Calls of active or inactive are those of the source. No cut-off for these calls is given here.

Assays:
C6 [1] = assay: Inhibition of DNA synthesis in rat C6 cells assessed as BrdU incorporation at IC50 after 24 hrs by ELISA; type: functional, cell-based
C6 [2] = assay: Inhibition of DNA synthesis in rat C6 cells assessed as BrdU incorporation after 24 hrs by ELISA; type: functional, cell-based
C6 [3] = assay: Cytotoxicity against rat C6 cells after 24 hrs by MTT assay; type: functional, cell-based; settings: C6, 24 h
NIH3T3 = assay: Cytotoxicity against mouse NIH/3T3 cells after 24 hrs by MTT assay; type: cell-based; settings: NIH3T3, 24 h
C6 [4] = assay: Cytotoxicity against rat C6 cells assessed as cell viability at 200 ug/ml after 24 hrs by MTT assay relative to control; type: functional; settings: C6, 24 h, read-out: Activity
C6 [5] = assay: Cytotoxicity against rat C6 cells assessed as cell viability at 100 ug/ml after 24 hrs by MTT assay relative to control; type: functional; settings: C6, 24 h, read-out: Activity
C6 [6] = assay: Cytotoxicity against rat C6 cells assessed as cell viability at 50 ug/ml after 24 hrs by MTT assay relative to control; type: functional; settings: C6, 24 h, read-out: Activity
C6 [7] = assay: Cytotoxicity against rat C6 cells assessed as cell viability at 25 ug/ml after 24 hrs by MTT assay relative to control; type: functional; settings: C6, 24 h, read-out: Activity
C6 [8] = assay: Cytotoxicity against rat C6 cells assessed as cell viability at 12 ug/ml after 24 hrs by MTT assay relative to control; type: functional; settings: C6, 24 h, read-out: Activity
C6 [9] = assay: Cytotoxicity against rat C6 cells assessed as cell viability at 6 ug/ml after 24 hrs by MTT assay relative to control; type: functional; settings: C6, 24 h, read-out: Activity
Candida albicans = assay: Antimicrobial activity against Candida albicans ATCC 22019 after 18 to 24 hrs by microbroth dilution method; type: functional
Fusarium culmorum = assay: Antimicrobial activity against wild type Fusarium culmorum after 48 to 72 hrs by microbroth dilution method; type: functional
Fusarium verticillioides = assay: Antimicrobial activity against Fusarium moniliforme NRRL 1866 after 48 to 72 hrs by microbroth dilution method; type: functional
Fusarium solani = assay: Antimicrobial activity against Fusarium solani NRRL 13414 after 48 to 72 hrs by microbroth dilution method; type: functional
Aspergillus ochraceus = assay: Antimicrobial activity against Aspergillus ochraceus NRRL 3174 after 48 to 72 hrs by microbroth dilution method; type: functional
Trichoderma harzianum = assay: Antimicrobial activity against Trichoderma harzianum NRRL 20565 after 48 to 72 hrs by microbroth dilution method; type: functional
Penicillium chrysogenum = assay: Antimicrobial activity against Penicillium chrysogenum NRRL 1951 after 48 to 72 hrs by microbroth dilution method; type: functional
Aspergillus parasiticus = assay: Antimicrobial activity against Aspergillus parasiticus NRRL 465 after 48 to 72 hrs by microbroth dilution method; type: functional
Bacillus subtilis = assay: Antimicrobial activity against Bacillus subtilis NRS-744 after 18 to 24 hrs by microbroth dilution method; type: functional
Micrococcus luteus = assay: Antimicrobial activity against Micrococcus luteus NRLL B-4375 after 18 to 24 hrs by microbroth dilution method; type: functional
Pseudomonas aeruginosa = assay: Antimicrobial activity against Pseudomonas aeruginosa […] after 18 to 24 hrs by microbroth dilution method; type: functional
Escherichia coli = assay: Antimicrobial activity against Escherichia coli ATCC 25922 after 18 to 24 hrs by microbroth dilution method; type: functional
Listeria monocytogenes = assay: Antimicrobial activity against Listeria monocytogenes ATCC 7644 after 18 to 24 hrs by microbroth dilution method; type: functional
Staphylococcus aureus = assay: Antimicrobial activity against Staphylococcus aureus NRRL B-767 after 18 to 24 hrs by microbroth dilution method; type: functional

MIC (Candida albicans) [µg/mL]	MIC (Fusarium culmorum) [µg/mL]	MIC (Fusarium verticillioides) [µg/mL]	MIC (Fusarium solani) [µg/mL]	MIC (Aspergillus ochraceus) [µg/mL]	MIC (Trichoderma harzianum) [µg/mL]	MIC (Penicillium chrysogenum) [µg/mL]	MIC (Aspergillus parasiticus) [µg/mL]	MIC (Bacillus subtilis) [µg/mL]	MIC (Micrococcus luteus) [µg/mL]	MIC (Pseudomonas aeruginosa) [µg/mL]	MIC (Escherichia coli) [µg/mL]	SMILES	IC50 (C6 [3]) [µg/mL]	IC50 (NIH3T3) [µg/mL]	viability at 200 µg/mL (C6 [4]) [%]	viability at 100 µg/mL (C6 [5]) [%]	viability at 50 µg/mL (C6 [6]) [%]	viability at 25 µg/mL (C6 [7]) [%]	viability at 12 µg/mL (C6 [8]) [%]	viability at 6 µg/mL (C6 [9]) [%]	other results
250 (≈ 500 µM)	125 (≈ 250 µM)	250 (≈ 500 µM)	250 (≈ 500 µM)	250 (≈ 500 µM)	125 (≈ 250 µM)	250 (≈ 500 µM)	250 (≈ 500 µM)	250 (≈ 500 µM)	250 (≈ 500 µM)	250 (≈ 500 µM)	250 (≈ 500 µM)	Cc1ccc(-c2cs/c(=N/NC(=O)CSc3nnnn3-c3ccccc3)n2-c2ccccc2)cc1	14.7 (≈ 29.4 µM)	> 500	22.2	28.5	29.5	38.8	55.1	66.8	inhibition (C6 [1]): Active; inhibition (C6 [2]): Dose-dependent effect; MIC (Listeria monocytogenes): 250 µg/mL (≈ 500 µM); MIC (Staphylococcus aureus): 250 µg/mL (≈ 500 µM)
125 (≈ 221 µM)	250 (≈ 443 µM)	250 (≈ 443 µM)	250 (≈ 443 µM)	250 (≈ 443 µM)	125 (≈ 221 µM)	250 (≈ 443 µM)	250 (≈ 443 µM)	250 (≈ 443 µM)	250 (≈ 443 µM)	250 (≈ 443 µM)	250 (≈ 443 µM)	O=C(CSc1nnnn1-c1ccccc1)N/N=c1/scc(-c2ccc(Br)cc2)n1-c1ccccc1	21 (≈ 37.2 µM)	433 (≈ 768 µM)	20.4	24.3	32	47.9	58.6	61.8	inhibition (C6 [1]): Active; inhibition (C6 [2]): Dose-dependent effect; MIC (Listeria monocytogenes): 250 µg/mL (≈ 443 µM); MIC (Staphylococcus aureus): 250 µg/mL (≈ 443 µM)
250 (≈ 571 µM)	250 (≈ 571 µM)	250 (≈ 571 µM)	250 (≈ 571 µM)	250 (≈ 571 µM)	250 (≈ 571 µM)	250 (≈ 571 µM)	250 (≈ 571 µM)	500 (≈ 1140 µM)	250 (≈ 571 µM)	250 (≈ 571 µM)	250 (≈ 571 µM)	O=C(CSc1ncccn1)N/N=c1/scc(-c2ccc(F)cc2)n1-c1ccccc1	110 (≈ 251 µM)	> 500	32.2	53.4	55.5	63.9	77.4	84	MIC (Listeria monocytogenes): 250 µg/mL (≈ 571 µM); MIC (Staphylococcus aureus): 500 µg/mL (≈ 1140 µM)
250 (≈ 534 µM)	250 (≈ 534 µM)	250 (≈ 534 µM)	250 (≈ 534 µM)	250 (≈ 534 µM)	125 (≈ 267 µM)	250 (≈ 534 µM)	250 (≈ 534 µM)	500 (≈ 1070 µM)	250 (≈ 534 µM)	250 (≈ 534 µM)	250 (≈ 534 µM)	Cn1nnnc1SCC(=O)N/N=c1/scc(-c2ccc([N+](=O)[O-])cc2)n1-c1ccccc1	> 200	167 (≈ 356 µM)	58.6	64.1	69.2	69.3	76.2	80.4	MIC (Listeria monocytogenes): 250 µg/mL (≈ 534 µM); MIC (Staphylococcus aureus): 250 µg/mL (≈ 534 µM)
250 (≈ 502 µM)	250 (≈ 502 µM)	250 (≈ 502 µM)	250 (≈ 502 µM)	250 (≈ 502 µM)	250 (≈ 502 µM)	250 (≈ 502 µM)	250 (≈ 502 µM)	250 (≈ 502 µM)	250 (≈ 502 µM)	250 (≈ 502 µM)	250 (≈ 502 µM)	O=C(CSc1ncccn1)N/N=c1/scc(-c2ccc(Br)cc2)n1-c1ccccc1	> 200	273 (≈ 548 µM)	63.2	67.6	69	72.3	72.1	76.4	MIC (Listeria monocytogenes): 250 µg/mL (≈ 502 µM); MIC (Staphylococcus aureus): 500 µg/mL (≈ 1000 µM)
250 (≈ 592 µM)	250 (≈ 592 µM)	250 (≈ 592 µM)	250 (≈ 592 µM)	250 (≈ 592 µM)	125 (≈ 296 µM)	250 (≈ 592 µM)	250 (≈ 592 µM)	250 (≈ 592 µM)	250 (≈ 592 µM)	250 (≈ 592 µM)	250 (≈ 592 µM)	Cn1cnnc1SCC(=O)N/N=c1/scc(-c2ccccc2)n1-c1ccccc1	68.3 (≈ 162 µM)	217 (≈ 513 µM)	35.5	38.6	62.4	77.3	79.6	90	MIC (Listeria monocytogenes): 250 µg/mL (≈ 592 µM); MIC (Staphylococcus aureus): 250 µg/mL (≈ 592 µM)
250 (≈ 481 µM)	250 (≈ 481 µM)	250 (≈ 481 µM)	250 (≈ 481 µM)	250 (≈ 481 µM)	125 (≈ 240 µM)	250 (≈ 481 µM)	250 (≈ 481 µM)	250 (≈ 481 µM)	125 (≈ 240 µM)	125 (≈ 240 µM)	125 (≈ 240 µM)	O=C(CSc1nnnn1-c1ccccc1)N/N=c1/scc(-c2ccc(Cl)cc2)n1-c1ccccc1	> 200	313 (≈ 602 µM)	52.4	54.3	60	62.3	69.3	77.4	MIC (Listeria monocytogenes): 250 µg/mL (≈ 481 µM); MIC (Staphylococcus aureus): 250 µg/mL (≈ 481 µM)
250 (≈ 559 µM)	250 (≈ 559 µM)	250 (≈ 559 µM)	250 (≈ 559 µM)	250 (≈ 559 µM)	125 (≈ 279 µM)	250 (≈ 559 µM)	250 (≈ 559 µM)	250 (≈ 559 µM)	250 (≈ 559 µM)	250 (≈ 559 µM)	250 (≈ 559 µM)	Cn1cnnc1SCC(=O)N/N=c1/scc(-c2ccc(C#N)cc2)n1-c1ccccc1	> 200	153 (≈ 343 µM)	52.6	55.2	58.8	58.8	62.6	70.2	MIC (Listeria monocytogenes): 250 µg/mL (≈ 559 µM); MIC (Staphylococcus aureus): 250 µg/mL (≈ 559 µM)
250 (≈ 571 µM)	125 (≈ 286 µM)	250 (≈ 571 µM)	250 (≈ 571 µM)	250 (≈ 571 µM)	125 (≈ 286 µM)	250 (≈ 571 µM)	250 (≈ 571 µM)	500 (≈ 1140 µM)	250 (≈ 571 µM)	250 (≈ 571 µM)	250 (≈ 571 µM)	Cc1ccc(-c2cs/c(=N/NC(=O)CSc3nnnn3C)n2-c2ccccc2)cc1	36.3 (≈ 83 µM)	243 (≈ 556 µM)	39.7	39.7	44.3	60.7	68.8	88	MIC (Listeria monocytogenes): 250 µg/mL (≈ 571 µM); MIC (Staphylococcus aureus): 250 µg/mL (≈ 571 µM)
125 (≈ 286 µM)	250 (≈ 573 µM)	250 (≈ 573 µM)	250 (≈ 573 µM)	250 (≈ 573 µM)	125 (≈ 286 µM)	250 (≈ 573 µM)	250 (≈ 573 µM)	250 (≈ 573 µM)	125 (≈ 286 µM)	250 (≈ 573 µM)	125 (≈ 286 µM)	Cc1ccc(-c2cs/c(=N/NC(=O)CSc3nncn3C)n2-c2ccccc2)cc1	56 (≈ 128 µM)	130 (≈ 298 µM)	27.8	39.6	53.8	70.7	72	74.6	MIC (Listeria monocytogenes): 250 µg/mL (≈ 573 µM); MIC (Staphylococcus aureus): 250 µg/mL (≈ 573 µM)
